Assay results published in PubChem BioAssay (NCI).
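Assay format: 96-well plates, 48-hour exposure. GI50 = concentration required for 50% inhibition of growth. TGI is the concentration that stops growth completely.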

Assays:
Assay in all cases: NCI anticancer screen, dose series, 48 h
HOP-62 NSCLC = test system: HOP-62 NSCLC
OVCAR-5 ovarian = test system: OVCAR-5 ovarian
SN12C renal = test system: SN12C renal
NCI-H226 lung = test system: NCI-H226 lung
DU-145 prostate = test system: DU-145 prostate
HOP-92 NSCLC = test system: HOP-92 NSCLC
OVCAR-4 ovarian = test system: OVCAR-4 ovarian
M14 melanoma = test system: M14 melanoma
SR leukemia = test system: SR leukemia
SK-MEL-2 melanoma = test system: SK-MEL-2 melanoma

COC(=O)c1cc(-c2cc(OC)c(OC)c(OC)c2)[nH]c1N/N=C/c1c(Cl)cccc1Cl
GI50 (HOP-62 NSCLC): 2.1 µM
TGI (HOP-62 NSCLC): 13 µM
GI50 (OVCAR-5 ovarian): 2.25 µM
TGI (OVCAR-5 ovarian): 13.4 µM
GI50 (SN12C renal): 3.3 µM
TGI (SN12C renal): > 74.3 µM
GI50 (NCI-H226 lung): 9.54 µM
TGI (NCI-H226 lung): 40.3 µM
GI50 (DU-145 prostate): 1.85 µM
TGI (DU-145 prostate): 16.3 µM
GI50 (HOP-92 NSCLC): 0.857 µM
TGI (HOP-92 NSCLC): 7.48 µM
GI50 (OVCAR-4 ovarian): 0.666 µM
TGI (OVCAR-4 ovarian): 2.68 µM
GI50 (M14 melanoma): 8.6 µM
TGI (M14 melanoma): 40.1 µM
GI50 (SR leukemia): 0.926 µM
TGI (SR leukemia): > 100 µM
GI50 (SK-MEL-2 melanoma): 3.01 µM
TGI (SK-MEL-2 melanoma): 17.9 µM

COc1ccc(C(=O)COc2cccc(/C=C3\CSc4ccccc4C3=O)c2)cc1
GI50 (HOP-62 NSCLC): 2.84 µM
TGI (HOP-62 NSCLC): 7.6 µM
GI50 (OVCAR-5 ovarian): 2.18 µM
TGI (OVCAR-5 ovarian): 4.77 µM
GI50 (SN12C renal): 2.63 µM
TGI (SN12C renal): 8.31 µM
GI50 (NCI-H226 lung): 4.63 µM
TGI (NCI-H226 lung): 14.9 µM
GI50 (DU-145 prostate): 2.53 µM
TGI (DU-145 prostate): 5.4 µM
GI50 (HOP-92 NSCLC): 2.4 µM
TGI (HOP-92 NSCLC): 9.08 µM
GI50 (OVCAR-4 ovarian): 2.79 µM
TGI (OVCAR-4 ovarian): 9.87 µM
GI50 (M14 melanoma): 2.01 µM
TGI (M14 melanoma): 4.01 µM
GI50 (SR leukemia): 0.395 µM
GI50 (SK-MEL-2 melanoma): 1.86 µM
TGI (SK-MEL-2 melanoma): 3.49 µM

COc1ccc(-c2nnc(SCC(=O)Nc3ccc(/C(C)=N\O)cc3)n2-c2ccccc2)cc1OC
GI50 (HOP-62 NSCLC): 2.06 µM
TGI (HOP-62 NSCLC): 6.8 µM
GI50 (OVCAR-5 ovarian): > 100 µM
TGI (OVCAR-5 ovarian): > 100 µM
GI50 (SN12C renal): 26.2 µM
TGI (SN12C renal): > 100 µM
GI50 (NCI-H226 lung): 7.28 µM
TGI (NCI-H226 lung): > 100 µM
GI50 (DU-145 prostate): 24.9 µM
TGI (DU-145 prostate): > 100 µM
GI50 (HOP-92 NSCLC): 2.12 µM
TGI (HOP-92 NSCLC): 6.42 µM
GI50 (OVCAR-4 ovarian): > 100 µM
TGI (OVCAR-4 ovarian): > 100 µM
GI50 (M14 melanoma): 97.4 µM
TGI (M14 melanoma): > 100 µM
GI50 (SR leukemia): > 100 µM
TGI (SR leukemia): > 100 µM
GI50 (SK-MEL-2 melanoma): 5.04 µM
TGI (SK-MEL-2 melanoma): 28.8 µM

Nc1ncnc2c1ncn2CC(O)C(=O)O (stereo unspecified)
TGI (HOP-62 NSCLC): > 100 µM
TGI (OVCAR-5 ovarian): > 100 µM
TGI (SN12C renal): > 100 µM
TGI (NCI-H226 lung): > 100 µM
TGI (DU-145 prostate): > 100 µM
TGI (HOP-92 NSCLC): > 100 µM
TGI (OVCAR-4 ovarian): > 100 µM
TGI (M14 melanoma): > 100 µM
TGI (SR leukemia): > 100 µM
TGI (SK-MEL-2 melanoma): > 100 µM

CC1=CCC(OC(=O)C(C)(C)CCC(O)(C(=O)OC2(C(C)C)CCC3(C)OC3C2)C(C)C)(C(C)C)CC1 (stereo unspecified)
GI50 (HOP-62 NSCLC): 0.615 µM
TGI (HOP-62 NSCLC): 1.63 µM
GI50 (OVCAR-5 ovarian): 0.695 µM
TGI (OVCAR-5 ovarian): 1.39 µM
GI50 (SN12C renal): 0.124 µM
TGI (SN12C renal): 0.532 µM
GI50 (NCI-H226 lung): 0.693 µM
TGI (NCI-H226 lung): 1.85 µM
GI50 (DU-145 prostate): 0.23 µM
TGI (DU-145 prostate): 0.451 µM
GI50 (HOP-92 NSCLC): 0.371 µM
TGI (HOP-92 NSCLC): 1.57 µM
GI50 (OVCAR-4 ovarian): 0.608 µM
TGI (OVCAR-4 ovarian): 1.87 µM
GI50 (M14 melanoma): 0.654 µM
TGI (M14 melanoma): 1.46 µM
GI50 (SR leukemia): 0.266 µM
TGI (SR leukemia): 1.51 µM
GI50 (SK-MEL-2 melanoma): 0.79 µM
TGI (SK-MEL-2 melanoma): 1.78 µM

O=C1C=C[C@@]23C[C@@H](Nc4c(O)c5c6c(c42)=NCCC=6C=N5)SC3=C1
GI50 (OVCAR-5 ovarian): 5.13 µM
TGI (OVCAR-5 ovarian): 9.5 µM
GI50 (SN12C renal): 2.36 µM
TGI (SN12C renal): 5.16 µM
TGI (NCI-H226 lung): 28.7 µM
GI50 (DU-145 prostate): 17.1 µM
TGI (DU-145 prostate): 30.9 µM
GI50 (HOP-92 NSCLC): 3.18 µM
TGI (HOP-92 NSCLC): 10.2 µM
GI50 (OVCAR-4 ovarian): 1.83 µM
TGI (OVCAR-4 ovarian): 3.27 µM
GI50 (M14 melanoma): 2.16 µM
TGI (M14 melanoma): 5.05 µM
GI50 (SR leukemia): 2.26 µM
TGI (SR leukemia): 6.14 µM
GI50 (SK-MEL-2 melanoma): 1.94 µM
TGI (SK-MEL-2 melanoma): 4.03 µM

O=C1c2ccc3c4c5ccc(c24)C(=O)N1CCCOCCCCOCCCNCc1ccc(cc1)CNCCCOCCCCOCCCN(C3=O)C5=O
GI50 (HOP-62 NSCLC): 1.15 µM
TGI (HOP-62 NSCLC): 3.31 µM
GI50 (OVCAR-5 ovarian): 0.944 µM
TGI (OVCAR-5 ovarian): 1.81 µM
GI50 (SN12C renal): 0.816 µM
TGI (SN12C renal): 1.53 µM
GI50 (NCI-H226 lung): 1.77 µM
TGI (NCI-H226 lung): 6.58 µM
GI50 (DU-145 prostate): 0.886 µM
TGI (DU-145 prostate): 1.73 µM
GI50 (HOP-92 NSCLC): 0.782 µM
TGI (HOP-92 NSCLC): 2.08 µM
GI50 (OVCAR-4 ovarian): 0.567 µM
TGI (OVCAR-4 ovarian): 1.18 µM
GI50 (M14 melanoma): 0.923 µM
TGI (M14 melanoma): 1.75 µM
GI50 (SR leukemia): 0.621 µM
TGI (SR leukemia): 2.62 µM
GI50 (SK-MEL-2 melanoma): 0.861 µM
TGI (SK-MEL-2 melanoma): 1.73 µM

O=C1/C(=C/c2ccc([N+](=O)[O-])o2)Oc2ccc(Br)cc21
GI50 (HOP-62 NSCLC): 15 µM
TGI (HOP-62 NSCLC): 34.4 µM
GI50 (OVCAR-5 ovarian): 2.57 µM
TGI (OVCAR-5 ovarian): 9.17 µM
GI50 (SN12C renal): 1.96 µM
TGI (SN12C renal): 4.53 µM
GI50 (NCI-H226 lung): 2.12 µM
TGI (NCI-H226 lung): 5.37 µM
GI50 (DU-145 prostate): 9.31 µM
TGI (DU-145 prostate): 21.1 µM
GI50 (HOP-92 NSCLC): 1.52 µM
TGI (HOP-92 NSCLC): 3.1 µM
GI50 (OVCAR-4 ovarian): 2.37 µM
TGI (OVCAR-4 ovarian): 6.18 µM
GI50 (M14 melanoma): 2.68 µM
TGI (M14 melanoma): 7.01 µM
GI50 (SR leukemia): 0.77 µM
TGI (SR leukemia): 5.52 µM
GI50 (SK-MEL-2 melanoma): 2.24 µM
TGI (SK-MEL-2 melanoma): 4.43 µM

Cc1ccc2c(c1C)-c1c(ccc(C)c1C)C(=O)C2=O
TGI (HOP-62 NSCLC): 9.32 µM
TGI (OVCAR-5 ovarian): 3.42 µM
TGI (SN12C renal): 2.73 µM
TGI (NCI-H226 lung): 5.91 µM
TGI (DU-145 prostate): 3.41 µM
TGI (HOP-92 NSCLC): 5.02 µM
TGI (OVCAR-4 ovarian): 0.554 µM
TGI (M14 melanoma): 2.12 µM
TGI (SR leukemia): 0.56 µM
TGI (SK-MEL-2 melanoma): 3.1 µM

C/C([O-])=C1\Cc2ccccc2C1=O.C/C([O-])=C1\Cc2ccccc2C1=O.CC[O-].CC[O-].[Ti+4]
GI50 (HOP-62 NSCLC): 13 µM
TGI (HOP-62 NSCLC): 50.3 µM
GI50 (OVCAR-5 ovarian): 30.5 µM
TGI (OVCAR-5 ovarian): 72.9 µM
GI50 (SN12C renal): 21.5 µM
TGI (SN12C renal): > 81.6 µM
GI50 (NCI-H226 lung): 7.47 µM
TGI (NCI-H226 lung): 35.7 µM
GI50 (DU-145 prostate): 26.4 µM
TGI (DU-145 prostate): > 100 µM
GI50 (HOP-92 NSCLC): 18.7 µM
TGI (HOP-92 NSCLC): 55.4 µM
GI50 (OVCAR-4 ovarian): 27.2 µM
TGI (OVCAR-4 ovarian): > 84.5 µM
GI50 (M14 melanoma): 16.8 µM
TGI (M14 melanoma): 42.3 µM
GI50 (SR leukemia): 19.1 µM
TGI (SR leukemia): > 79.9 µM
GI50 (SK-MEL-2 melanoma): 13.5 µM
TGI (SK-MEL-2 melanoma): 33.6 µM

NC(=O)c1cc([N+](=O)[O-])c(Cl)c([N+](=O)[O-])c1
GI50 (HOP-62 NSCLC): 5.49 µM
TGI (HOP-62 NSCLC): 17.8 µM
GI50 (OVCAR-5 ovarian): 5.53 µM
TGI (OVCAR-5 ovarian): 17.6 µM
GI50 (SN12C renal): 1.8 µM
TGI (SN12C renal): 3.57 µM
GI50 (NCI-H226 lung): 1.68 µM
TGI (NCI-H226 lung): 3.22 µM
GI50 (DU-145 prostate): 2.15 µM
TGI (DU-145 prostate): 3.92 µM
GI50 (HOP-92 NSCLC): 1.96 µM
TGI (HOP-92 NSCLC): 4.18 µM
GI50 (OVCAR-4 ovarian): 1.91 µM
TGI (OVCAR-4 ovarian): 3.9 µM
GI50 (M14 melanoma): 1.91 µM
TGI (M14 melanoma): 4.72 µM
GI50 (SR leukemia): 1.89 µM
TGI (SR leukemia): > 100 µM
GI50 (SK-MEL-2 melanoma): 13.7 µM
TGI (SK-MEL-2 melanoma): 27.8 µM

O=C1/C(=C/c2ccc3c(c2)OCO3)CCC1CN1CCOCC1 (stereo unspecified)
TGI (HOP-62 NSCLC): 25.6 µM
TGI (OVCAR-5 ovarian): 31.8 µM
TGI (SN12C renal): 12 µM
TGI (NCI-H226 lung): 33.8 µM
TGI (DU-145 prostate): 29.6 µM
TGI (HOP-92 NSCLC): 29.3 µM
TGI (OVCAR-4 ovarian): 18.8 µM
TGI (M14 melanoma): 15.3 µM
TGI (SR leukemia): 5.42 µM
TGI (SK-MEL-2 melanoma): 28.6 µM

NC(=NC1CCCCCCC1)c1ccc(N2CCN(c3ccc(C(N)=NC4CCCCCCC4)cc3)CC2)cc1
GI50 (HOP-62 NSCLC): 14.4 µM
TGI (HOP-62 NSCLC): 62.8 µM
GI50 (OVCAR-5 ovarian): 14.9 µM
TGI (OVCAR-5 ovarian): 39 µM
GI50 (SN12C renal): 7.62 µM
TGI (SN12C renal): 69.3 µM
GI50 (NCI-H226 lung): 11.5 µM
TGI (NCI-H226 lung): 39.1 µM
GI50 (DU-145 prostate): 1.94 µM
TGI (DU-145 prostate): 12.6 µM
GI50 (HOP-92 NSCLC): 25.1 µM
TGI (HOP-92 NSCLC): 79.9 µM
GI50 (OVCAR-4 ovarian): 24.6 µM
TGI (OVCAR-4 ovarian): > 100 µM
GI50 (M14 melanoma): 30.8 µM
TGI (M14 melanoma): > 100 µM
GI50 (SR leukemia): 26.6 µM
TGI (SR leukemia): > 100 µM
GI50 (SK-MEL-2 melanoma): 12 µM
TGI (SK-MEL-2 melanoma): > 100 µM

CC(=O)NCCSC(=O)c1ccccc1
TGI (HOP-62 NSCLC): 0.525 µM
TGI (OVCAR-5 ovarian): 0.527 µM
TGI (SN12C renal): 0.492 µM
TGI (NCI-H226 lung): 0.413 µM
TGI (DU-145 prostate): 2.62 µM
TGI (HOP-92 NSCLC): 15.5 µM
TGI (OVCAR-4 ovarian): > 42.8 µM
TGI (M14 melanoma): 0.242 µM
TGI (SR leukemia): 0.66 µM
TGI (SK-MEL-2 melanoma): 0.827 µM
